In ChEMBL document CHEMBL1201862, “PubChem BioAssay data set” (2004):
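Step 1: Grow cells in 96-well plates. Step 2: Expose to compound for 48 hours at 5 concentrations. Step 3: Interpolate endpoints linearly; if unreached, use highest concentration. GI50: concentration for 50% inhibition of growth.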 Calls of active or inactive are those of the source. Rule as the data show it: active = GI50 up to about 1.1 µM and inactive = higher.

Experiments:
Test in all cases: NCI anticancer screen, dose series, 48 h
[1] = tested on: CAKI-1
[2] = tested on: CCRF-CEM
[3] = tested on: DU-145
[4] = tested on: HT-29
[5] = tested on: Hs-578T
[6] = tested on: K562
[7] = tested on: MCF7
[8] = tested on: MDA-MB-231
[9] = tested on: MDA-MB-435
[10] = tested on: NCI-H23
[11] = tested on: NCI-H460
[12] = tested on: OVCAR-5
[13] = tested on: SF-295
[14] = tested on: SK-MEL-2
[15] = tested on: SR
[16] = tested on: SW-620
[17] = tested on: T47D
[18] = tested on: U-251
[19] = tested on: HCC 2998

Measured: GI50

COC(=O)CC(c1cn(S(=O)(=O)c2ccc(C)cc2)c2ccccc12)C1C[C@@H](C(=O)OC)N(C(=O)OC(C)(C)C)C1=O (some centres undefined)
inactive: [1] 31.7 µM | [2] 9.18 µM | [3] 87.1 µM | [4] 26.7 µM | [5] > 100 µM | [6] 54.1 µM | [7] 33.5 µM | [8] 22.5 µM | [9] 41 µM | [10] 66.8 µM | [11] 26.6 µM | [12] > 100 µM | [13] 20.9 µM | [14] 44.3 µM | [15] 3.08 µM | [16] 12.5 µM | [17] 95.3 µM | [18] 33.9 µM

O=C1N/C(=N/N=C/C(O)C(O)C(O)C(O)CO)N/C1=C\c1c[nH]c2ccccc12 (centres undefined)
inactive: [1] > 100 µM | [2] 39.1 µM | [3] > 100 µM | [19] > 100 µM | [4] 57.7 µM | [5] > 100 µM | [6] 83.9 µM | [7] > 100 µM | [8] 34.2 µM | [9] > 100 µM | [10] > 100 µM | [11] > 100 µM | [12] > 100 µM | [13] > 100 µM | [14] 28.3 µM | [16] > 100 µM | [17] 97.7 µM | [18] 69.3 µM

CCOC(=O)C(Cc1ccc(OC(=O)c2ccc(OC)cc2)cc1)NC(=O)C(F)(F)F (centres undefined)
inactive: [1] > 100 µM | [2] 39.5 µM | [3] > 100 µM | [19] > 100 µM | [4] > 100 µM | [5] > 100 µM | [6] > 100 µM | [7] > 100 µM | [8] 77.6 µM | [9] > 100 µM | [10] 45.2 µM | [11] > 100 µM | [12] > 100 µM | [13] 80.7 µM | [14] > 100 µM | [16] > 100 µM | [17] > 100 µM | [18] 69.3 µM

C[C@H](CCCOS(C)(=O)=O)[C@H]1CC[C@H]2[C@@H]3CC[C@@H]4C[C@H](OS(C)(=O)=O)CC[C@]4(C)[C@H]3CC[C@]12C
inactive: [1] 11.6 µM | [2] > 100 µM | [3] 27 µM | [4] 31.8 µM | [5] 24.4 µM | [6] > 100 µM | [7] 26.4 µM | [8] 13.8 µM | [9] 20.5 µM | [10] 16.6 µM | [11] 30.5 µM | [12] 39.3 µM | [13] 37.5 µM | [14] 60.1 µM | [15] 19.2 µM | [16] 56 µM | [17] 24.8 µM | [18] 15.9 µM

COc1ccc(C(=O)/C=C2\c3ccccc3C(=O)N2C)cc1
inactive: [1] 36.4 µM | [2] 44.8 µM | [3] > 100 µM | [4] 35.6 µM | [5] 90.6 µM | [6] 44.1 µM | [7] 21 µM | [8] > 100 µM | [9] 36.9 µM | [10] 55.3 µM | [11] 36.1 µM | [12] > 100 µM | [13] 71 µM | [14] > 100 µM | [15] 33.5 µM | [16] > 100 µM | [17] 27 µM | [18] 74.8 µM

COc1ccc(C2=NN(C(=O)c3ccccc3)C(O)(c3cc(F)c(Cl)cc3Cl)C2)cc1OC (centres undefined)
inactive: [1] 27.5 µM | [2] > 100 µM | [3] 39 µM | [19] 30.9 µM | [4] 23.5 µM | [5] 34.5 µM | [6] > 100 µM | [7] 32.1 µM | [8] 42.2 µM | [9] 31.8 µM | [10] 42.3 µM | [11] 83.2 µM | [12] 71.3 µM | [13] 29.5 µM | [14] 29 µM | [16] > 100 µM | [17] 50.8 µM | [18] 32.4 µM

COc1ccc(C(NS(=O)(=O)c2ccc(C)cc2)c2c(C(CBr)OC)c3ccccc3n2S(=O)(=O)c2ccccc2)cc1OC (centres undefined)
inactive: [1] > 100 µM | [2] 89.7 µM | [3] > 100 µM | [19] > 100 µM | [4] > 100 µM | [5] > 100 µM | [6] > 100 µM | [7] > 100 µM | [8] 52.8 µM | [9] > 100 µM | [10] > 100 µM | [11] > 100 µM | [12] > 100 µM | [13] > 100 µM | [14] > 100 µM | [16] > 100 µM | [17] > 100 µM | [18] > 100 µM

COc1ccc(OC)c2sc(N3C(=O)/C(=C/c4cccc(Oc5ccccc5)c4)N=C3c3ccccc3)nc12
inactive: [1] > 100 µM | [2] 29.9 µM | [3] > 100 µM | [19] > 100 µM | [4] > 100 µM | [5] > 100 µM | [6] 32.1 µM | [7] 35.2 µM | [8] > 100 µM | [9] 29.3 µM | [10] > 100 µM | [11] > 100 µM | [12] > 100 µM | [13] > 100 µM | [14] > 100 µM | [16] 51.1 µM | [17] 47 µM | [18] 92 µM
